Experimental data published in patent US11946094B2, “Combination therapies and methods of use thereof” (Augusta University Research Institute, Inc., priority 2017, dated 2024).

Test system: OVCAR-8 cells
Experiment: Drug-siRNA combination screen: 346-compound anticancer library at 100 nM, CCK-8 viability
Conditions: OVCAR-8; for Score (sum of observed SD values for 18 genes): drug 100 nM plus siRNA knockdown of each of 18 genes, distance VAB−VA×VB in SD, single gene contributes at most +5 / −5, negative = synergy, positive = antagonism; for synergy / antagonism of drug with gene knockdowns, in words: panel of 18 siRNA knockdowns

| SMILES | Score (sum of observed SD values for 18 genes) | synergy / antagonism of drug with gene knockdowns, in words (drug 100 nM) | number of genes (of 18) with high synergy with the drug (drug 100 nM, siRNA knockdown) |
| --- | --- | --- | --- |
| Cl.O=C(O)Cc1cccc(OCCCN(Cc2cccc(C(F)(F)F)c2Cl)CC(c2ccccc2)c2ccccc2)c1 [GW3965 HCI] | −11.35 SD |  |  |
| CC(C)c1onc(-c2c(Cl)cccc2Cl)c1COc1ccc(/C=C/c2cccc(C(=O)O)c2)c(Cl)c1 [GW4064] | −12.2 SD |  |  |
| CC(C)c1cc(-c2n[nH]c(=O)n2-c2ccc3c(ccn3C)c2)c(O)cc1O [Ganetespib] | 8.4 SD |  |  |
| COC1=C2C[C@@H](C)C[C@H](OC)[C@H](O)[C@@H](C)/C=C(\C)[C@H](OC(N)=O)[C@@H](OC)/C=C\C=C(/C)C(=O)NC(=CC1=O)C2=O [Geldanamycin] | 4.47 SD |  |  |
| Cl.Nc1ccn([C@@H]2O[C@H](CO)[C@@H](O)C2(F)F)c(=O)n1 [Gemcitibine HCI] | 35.88 SD |  |  |
| Nc1ccn([C@@H]2O[C@H](CO)[C@@H](O)C2(F)F)c(=O)n1 [Gemcitibine] | 34.12 SD |  |  |
| Cc1cc2c(C(C)C)c(O)c(O)c(C=O)c2c(O)c1-c1c(C)cc2c(C(C)C)c(O)c(O)c(C=O)c2c1O [Gossypol] | −13.34 SD |  |  |
| C[C@]12CCC(=O)C=C1CC[C@@H]1[C@@H]2[C@@H](O)C[C@@]2(C)[C@H]1CC[C@]2(O)C(=O)CO [Hydrocortisone] | −21.54 SD |  |  |
| Cc1ccccc1-n1c(Cn2cnc3c(N)ncnc32)nc2cccc(C)c2c1=O [IC - 87114] | 14.65 SD |  |  |
| CC(C)n1nc(-c2ccc3oc(N)nc3c2)c2c(N)ncnc21 [INK 128] | −44.98 SD |  |  |
| C=CC(=O)N1CCC[C@@H](n2nc(-c3ccc(Oc4ccccc4)cc3)c3c(N)ncnc32)C1 [Ibrutinib] | -58.62 SD |  |  |
| NC(=O)c1ccc(I)c([N+](=O)[O-])c1 [Iniparib] | −21.58 SD |  |  |
| CCc1c2c(nc3ccc(OC(=O)N4CCC(N5CCCCC5)CC4)cc13)-c1cc3c(c(=O)n1C2)COC(=O)[C@]3(O)CC.Cl [Irinotecan HCI] | −7.65 SD |  |  |
| CCc1c2c(nc3ccc(OC(=O)N4CCC(N5CCCCC5)CC4)cc13)-c1cc3c(c(=O)n1C2)COC(=O)[C@]3(O)CC [Irinotecan] | −36.08 SD |  |  |
| Cc1ccc(C(=O)N(CCCN)[C@@H](c2nc3cc(Cl)ccc3c(=O)n2Cc2ccccc2)C(C)C)cc1 [Ispinesib] | 1.22 SD |  |  |
| CCC(C)n1ncn(-c2ccc(N3CCN(c4ccc(OCC5COC(Cn6cncn6)(c6ccc(Cl)cc6Cl)O5)cc4)CC3)cc2)c1=O (stereo not shown) [Itraconazole] | −13.51 SD |  |  |
| CC(C)C[C@H](NC(=O)CNC(=O)c1cc(Cl)ccc1Cl)B(O)O [Ixazomib] | -52.76 SD |  |  |
| Nc1nc(Nc2ccc(S(N)(=O)=O)cc2)nn1C(=O)c1c(F)cccc1F [JNJ - 7706621] | 5.07 SD |  |  |
| Cn1cc(-c2ccc3nnc(C(F)(F)c4ccc5ncccc5c4)n3n2)cn1 [JNJ−38877605] | 2.72 SD |  |  |
| O=c1cc(-c2cccc3c2Sc2ccccc2S3)oc(N2CCOCC2)c1 [KU-55933] | −14.37 SD |  |  |
| C[C@@H]1CN(CC(=O)Nc2ccc3c(c2)Cc2cccc(-c4cc(=O)cc(N5CCOCC5)o4)c2S3)C[C@H](C)O1 [KU-60019] | −25.5 SD |  |  |
| O=C(Cc1ccc(-c2ccc(OCCN3CCOCC3)cc2)cn1)NCc1ccccc1 [KX2-391] | 13.4 SD |  |  |
| COc1ccc(-c2ccc3c(N4CCOCC4)nc(N4C[C@@H](C)O[C@@H](C)C4)nc3n2)cc1CO [Ku-0063794] | −41.94 SD |  |  |

| SMILES | Score (sum of observed SD values for 18 genes) | synergy / antagonism of drug with gene knockdowns, in words (drug 100 nM) | number of genes (of 18) with high synergy with the drug (drug 100 nM, siRNA knockdown) |
| --- | --- | --- | --- |
| c1ccc2c(-c3cnn4cc(-c5ccc(N6CCNCC6)cc5)cnc34)ccnc2c1 [LDN193189] | −28.37 SD |  |  |
| O=c1cc(N2CCOCC2)oc2c(-c3ccccc3)cccc12 [LY294002] | −8.41 SD |  |  |
| c1ccc(-c2nn3c(c2-c2ccnc4cc(OCCN5CCOCC5)ccc24)CCC3)nc1 [LY2109761] | −40.45 SD |  |  |
| Cc1cccc(-c2nn3c(c2-c2ccnc4ccc(C(N)=O)cc24)CCC3)n1 [LY2157299] | −0.82 SD |  |  |
| CC(C)(C)Cn1c(N)nc2ccc(-c3[nH]c(C(C)(C)C)nc3-c3ccc(F)cc3)nc21 [LY2228820] | −30.98 SD |  |  |
| Cc1cnc(NC(=O)Nc2cc(Br)c(C)cc2OC[C@@H]2CNCCO2)cn1 [LY2603618] | -52.09 SD | high level of synergism |  |
| COc1cc2nccc(Oc3ccc(NC(=O)NC4CC4)c(Cl)c3)c2cc1C(N)=O [Lenvatinib] | −27.5 SD |  |  |
| Nc1nc(=O)c2c([nH]1)NCC(CNc1ccc(C(=O)N[C@@H](CCC(=O)[O-])C(=O)[O-])cc1)N2C=O.[Ca+2] (stereo partly shown) [Leucovorin Calcium] | 1.29 SD |  |  |
| Cc1ccc(F)c(NC(=O)Nc2ccc(-c3cccc4[nH]nc(N)c34)cc2)c1 [Linifanib] | −25.28 SD |  |  |
| C[C@]1(O)C[C@@H](c2nc(-c3ccc4ccc(-c5ccccc5)nc4c3)c3c(N)nccn32)C1 [Linsitinib] | −28.72 SD |  |  |
| O=C(O)c1nn(Cc2ccc(Cl)cc2Cl)c2ccccc12 [Lonidamine] | −16.85 SD |  |  |
| O=C(O)CC[C@H]1CC[C@@](c2cc(F)ccc2F)(S(=O)(=O)c2ccc(Cl)cc2)CC1 [MK-0752] | −34.92 SD |  |  |
| C=CCn1c(=O)c2cnc(Nc3ccc(N4CCN(C)CC4)cc3)nc2n1-c1cccc(C(C)(C)O)n1 [MK-1775] | -64.04 SD | Frequently among the top synergizing pairs | 13 genes |
| Cl.Cl.NC1(c2ccc(-c3nc4ccc5n[nH]c(=O)n5c4cc3-c3ccccc3)cc2)CCC1 [MK-2206 2HCI] | −23.29 SD |  |  |
| CC(C)C[C@H](NC(=O)CNC(=O)c1cc(Cl)ccc1Cl)B1OC(=O)C(CC(=O)O)(CC(=O)O)O1 [MLN9708] | −34 SD |  |  |
| Cc1ccc(NC(=O)c2ccc(CN3CCN(C)CC3)cc2)cc1Nc1nc(-c2cccnc2)cs1 [Masitinib] | −4.23 SD |  |  |
| C[C@H]1C[C@H]2[C@@H]3CCC4=CC(=O)C=C[C@]4(C)[C@H]3C(=O)C[C@]2(C)[C@@]1(O)C(=O)CO [Meprednisone] | −25.82 SD |  |  |
| O=S(=O)(O)CCS [Mesna] | −15.88 SD |  |  |
| CC#C[C@]1(O)CC[C@H]2[C@@H]3CCC4=CC(=O)CCC4=C3[C@@H](c3ccc(N(C)C)cc3)C[C@@]21C [Mifepristone] | −22.75 SD |  |  |
| Nc1ccccc1NC(=O)c1ccc(CNc2nccc(-c3cccnc3)n2)cc1 [Mocetinostat] | 1.27 SD | frequently antagonized by knockdown of specific genes |  |
| N#CCNC(=O)c1ccc(-c2ccnc(Nc3ccc(N4CCOCC4)cc3)n2)cc1 [Momelotenib] | −0.52 SD |  |  |
| CC1(C)CNc2cc(NC(=O)c3cccnc3NCc3ccncc3)ccc21 [Motesanib Diphosphate] | −12.16 SD |  |  |
